Assay results published in patent US20250108048A1, “STING AGONIST COMPOUNDS AND CONJUGATES” (SUTRO BIOPHARMA, INC., priority 2023, published 2025).

Assays:
hSTING H232 [1] = target: T1, hSTING H232 (Homo sapiens, UniProt Q86WV6); assay: Surface plasmon resonance, hSTING H232; format: binding; settings: read-out: hSTING H232 SPR (Kd)
NCI-H292 cells = assay: Immunogenic cell death markers (HMGB1 release, surface calreticulin); format: cell-based, human; settings: 48 hours
Method: Immunogenic cell death elicited by the TROP2 ADC, iSAC, and exatecan were measured by cell surface translocate of calreticulin and release of HMGB1 in the cell culture supernatant. Briefly, TROP2 positive cell line NCI-H292 were seeded into a 96-well flat bottom plate 4 hours prior to the initialization of the assay. Test articles were formulated at a 2× starting concentration in cell culture medium, and samples were serial diluted (1:3) under sterile conditions and added onto the cells in duplicates. After incubation at 37° C. in a CO2 incubator for 48 hours, the cell supernatant was collected for measuring HMGB1 and the adherent cells were collected for calreticulin expression on the cell surface.
HMGB1 released in the supernatant was assessed via sandwich ELISA using mouse anti-human HMGB1 clone 2F6 (Sigma-Aldrich) as the capture, polyclonal rabbit anti-human HMGB1 (Abcam) as secondary, and polyclonal goat anti-rabbit IgG HRP as the detection antibody. The HMGB1 concentrations in the cell culture medium were calculated based a standard curve built on commercially available recombinant human HMGB1 (R&D Systems).
NCI-H292 cells were detached using Accutase (Innovative Cell Technologies) and viability was accessed using a 1:500 dilution of Zombie NIR viability dye. […] Surface calreticulin measures on the live cells were gathered using an Attune NXT Flow Cytometer (ThermoFisher Scientific) to obtain median fluorescence intensity values. All data were fitted with non-linear regression analysis, using log(agonist) vs. response, variable slope, 4 parameter fit equation using GraphPad Prism.

hSTING H232 [2] = target: T1, hSTING H232; assay: THP1-Dual KI-hSTING-H232 reporter assay (IRF pathway, secreted Lucia luciferase); format: cell-based; design: host or cells: THP1-Dual KI-hSTING-H232 (from THP1-Dual KO-STING); settings: THP1-Dual KI-hSTING-H232 cells, 24 hours; read-out: Reporter assay EC50 (nM) THP-1-H232

T1 sequence (Q86WV6 whole entry): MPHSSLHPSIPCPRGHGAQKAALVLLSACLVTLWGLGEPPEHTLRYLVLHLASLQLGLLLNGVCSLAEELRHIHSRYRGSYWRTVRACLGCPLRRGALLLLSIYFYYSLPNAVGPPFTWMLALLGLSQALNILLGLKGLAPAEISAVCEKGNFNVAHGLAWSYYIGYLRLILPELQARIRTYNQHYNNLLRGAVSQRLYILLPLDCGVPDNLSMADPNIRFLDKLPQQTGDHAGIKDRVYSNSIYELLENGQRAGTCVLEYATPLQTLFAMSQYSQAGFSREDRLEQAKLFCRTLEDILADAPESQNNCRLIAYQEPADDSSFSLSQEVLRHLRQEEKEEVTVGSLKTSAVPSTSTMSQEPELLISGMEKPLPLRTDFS

Kd (hSTING H232 [1]): ≤ 20 nM
EC50 (hSTING H232 [2]): > 150 nM
SMILES: CCn1nc(C)cc1C(=O)Nc1nc2cc(C(N)=O)cc(OC)c2n1C/C=C/Cn1c(NC(=O)c2cc(C)nn2CC)nc2cc(C(N)=O)cc(OCCCN3CCC(c4nnc5n4CCNC5)CC3)c21 [Compound 4, 1-[(E)-4-[5-carbamoyl-2-[(2-ethyl-5-methyl-pyrazole-3-carbonyl)amino]-7-[3-[4-(5,6,7,8-tetrahydro-[1,2,4]triazolo[4,3-a]pyrazin-3-yl)-1-piperidyl]propoxy]benzimidazol-1-yl]but-2-enyl]-2-[(2-ethyl-5-methyl-pyrazole-3-carbonyl)amino]-7-methoxy-benzimidazole-5-carboxamide; 2,2,2-trifluoroacetic acid]
HMGB-1 Release Span (NCI-H292 cells): 11 ng/mL
EC50 (NCI-H292 cells; Homo sapiens, sandwich ELISA, read-out: HMGB-1 Release EC50): 7.45 nM
